ChEMBL document CHEMBL1201862, “PubChem BioAssay data set” (2004)
Counter-ions that a name gives are not always drawn. Activity calls are given as the source filed them.

Assays:
[1] = target: Luciferin 4-monooxygenase (Photinus pyralis, UniProt P08659); test: inhibition of purified Photinus pyralis luciferase – biochemical, luminescence, dose response (AID 1891)
[2] = Luminescence Cell-Based Dose Confirmation HTS to Identify Inhibitors of Platelet Dense Granule Release. [Related pubchem assays: 1663 (Primary HTS), 1678 (Summary of Project)]; assay type: functional
[3] = P. falciparum Dd2 growth inhibitors, dose response, SYBR Green, cherry-picked samples (AID 1159567); assay type: functional, cell-based
Cytochrome P450 1A2 = target: T1, Cytochrome P450 1A2 (Homo sapiens, UniProt P05177);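 note: PubChem cytochrome P450 panel assay, CYP1A2 panel member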
T1 sequence (P05177 whole entry): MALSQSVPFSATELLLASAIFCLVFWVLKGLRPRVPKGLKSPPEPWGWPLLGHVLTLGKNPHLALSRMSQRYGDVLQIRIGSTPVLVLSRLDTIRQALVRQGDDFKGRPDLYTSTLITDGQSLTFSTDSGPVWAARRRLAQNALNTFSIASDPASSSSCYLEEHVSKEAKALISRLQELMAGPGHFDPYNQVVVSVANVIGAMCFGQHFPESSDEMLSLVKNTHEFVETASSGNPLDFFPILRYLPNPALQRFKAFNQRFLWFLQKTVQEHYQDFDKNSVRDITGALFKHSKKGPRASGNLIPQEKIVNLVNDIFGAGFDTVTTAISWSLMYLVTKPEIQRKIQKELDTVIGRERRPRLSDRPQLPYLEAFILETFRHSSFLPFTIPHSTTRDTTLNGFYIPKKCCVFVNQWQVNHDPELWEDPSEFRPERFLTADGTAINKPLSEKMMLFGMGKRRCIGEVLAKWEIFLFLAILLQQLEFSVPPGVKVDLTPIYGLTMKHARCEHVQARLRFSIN

Cytochrome P450 2C19 = Cytochrome P450 2C19 (Homo sapiens, UniProt P33261); test: Cytochrome panel assay with activity outcomes. Panel member name: p450-cyp2c19 Compounds with AC50 equal or less than 10 uM are considered active; assay type: functional
Cytochrome P450 3A4 = Cytochrome P450 3A4 (Homo sapiens, UniProt P08684);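 note: CYP3A4 tested as one member of a cytochrome P450 panel screen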
Cytochrome P450 2D6 = Cytochrome P450 2D6 (Homo sapiens, UniProt P10635);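 note: CYP2D6 member of a cytochrome P450 panel assay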
[4] = reduction of Shn3 3'UTR-driven luciferase in osteoblasts – cell-based, Clone20 osteoblasts, firefly luciferase, cherry-picked, dose response (AID 624132); assay type: functional;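 note: firefly luciferase luminescence from reporter carrying the Shn3 3'UTR in osteoblasts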
[5] = non-specific 3'UTR reporter inhibition in Clone20-Shn3RL – cell-based, Renilla luciferase, cherry-picked, counter-screen for Shn3 inhibitor project, dose response (AID 624133); assay type: functional
[6] = target: T2, Corticotropin-releasing factor receptor 2/Corticotropin-releasing factor-binding protein (Homo sapiens, UniProt P24387+Q13324); test: activators of CRF receptor 2 with binding protein – uHTS hits, confirmation (AID 602473); assay type: functional; details: read-out: EC50_Mean
T2 sequence (Q13324 whole entry): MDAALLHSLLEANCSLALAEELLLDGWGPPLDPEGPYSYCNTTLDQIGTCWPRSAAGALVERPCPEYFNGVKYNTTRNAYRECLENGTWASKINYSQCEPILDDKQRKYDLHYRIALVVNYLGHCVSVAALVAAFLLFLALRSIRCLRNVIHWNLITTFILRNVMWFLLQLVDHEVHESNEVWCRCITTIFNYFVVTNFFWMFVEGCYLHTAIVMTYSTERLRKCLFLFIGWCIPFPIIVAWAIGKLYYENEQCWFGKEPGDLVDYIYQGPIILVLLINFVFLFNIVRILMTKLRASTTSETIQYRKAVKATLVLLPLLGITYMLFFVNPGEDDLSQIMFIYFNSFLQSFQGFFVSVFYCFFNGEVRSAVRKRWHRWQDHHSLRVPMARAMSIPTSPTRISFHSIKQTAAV
T2 sequence (P24387 whole entry): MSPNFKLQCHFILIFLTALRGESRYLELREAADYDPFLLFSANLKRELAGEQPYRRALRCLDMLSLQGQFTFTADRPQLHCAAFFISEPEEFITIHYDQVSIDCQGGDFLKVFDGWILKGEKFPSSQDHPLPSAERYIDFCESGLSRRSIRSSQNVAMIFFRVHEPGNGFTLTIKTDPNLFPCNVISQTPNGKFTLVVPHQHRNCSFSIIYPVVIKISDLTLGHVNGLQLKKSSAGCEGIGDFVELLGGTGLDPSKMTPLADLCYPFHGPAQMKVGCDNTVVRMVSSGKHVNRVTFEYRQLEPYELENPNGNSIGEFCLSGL

Streptococcus = test: GAS UMAA2166 growth inhibition – luminescence, BacTiterGlo, counter-screen for streptokinase expression inhibitor project, dose response (AID 1915); assay type: functional, organism-based;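 note: potency for reduction of bacterial viability or growth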
[7] = tested on: Streptococcus sp. 'group A'; test: Streptococcus pyogenes SK(-)GAS viability under kanamycin – luminescence, BacTiterGlo, confirmation, counter-screen for streptokinase expression inhibitor project, dose response (AID 1900); assay type: functional, organism-based
Streptokinase A = target: T3, Streptokinase A (Streptococcus pyogenes serotype M1, UniProt P10520); test: viability-normalized secreted streptokinase activity reduction – plasminogen activation absorbance, OD405, dose response (AID 1914); assay type: functional, Streptococcus pyogenes M1 GAS;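 note: secreted streptokinase activity via plasminogen activation per viability signal from cell pellet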
T3 sequence (P10520 whole entry): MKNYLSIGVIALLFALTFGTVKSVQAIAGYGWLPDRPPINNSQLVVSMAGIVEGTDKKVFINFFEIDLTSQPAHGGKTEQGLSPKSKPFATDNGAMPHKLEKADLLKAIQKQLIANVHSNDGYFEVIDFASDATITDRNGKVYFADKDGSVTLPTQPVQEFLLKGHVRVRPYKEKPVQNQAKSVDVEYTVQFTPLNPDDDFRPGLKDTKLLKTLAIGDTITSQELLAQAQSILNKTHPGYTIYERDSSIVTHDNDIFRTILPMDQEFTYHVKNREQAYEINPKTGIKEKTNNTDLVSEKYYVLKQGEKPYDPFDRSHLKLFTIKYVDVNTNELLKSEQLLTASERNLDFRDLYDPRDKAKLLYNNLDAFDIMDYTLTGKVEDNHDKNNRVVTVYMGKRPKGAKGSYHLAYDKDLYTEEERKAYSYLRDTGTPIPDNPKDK

[8] = Luminescence Cell-Based Dose Retest to Confirm Inhibitors of Cancer Stem Cells. [Related pubchem assays (depositor defined):AID2717, AID2721]; assay type: functional; details: Homo sapiens
[9] = target: T4, Heat shock factor protein 1 (Mus musculus, UniProt P38532); test: enhancement of HSF1-driven luciferase signal – cell-based, NIH3T3, luminescence, dose retest, confirmation (AID 435004); assay type: functional;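 note: stress induced by proteasome inhibitor MG132 added 30 min after compound; luciferase reporter driven by HSF1 response element in NIH3T3 cells; actives raise luminescence as potentiators of the MG132 stress response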
T4 sequence (P38532 whole entry): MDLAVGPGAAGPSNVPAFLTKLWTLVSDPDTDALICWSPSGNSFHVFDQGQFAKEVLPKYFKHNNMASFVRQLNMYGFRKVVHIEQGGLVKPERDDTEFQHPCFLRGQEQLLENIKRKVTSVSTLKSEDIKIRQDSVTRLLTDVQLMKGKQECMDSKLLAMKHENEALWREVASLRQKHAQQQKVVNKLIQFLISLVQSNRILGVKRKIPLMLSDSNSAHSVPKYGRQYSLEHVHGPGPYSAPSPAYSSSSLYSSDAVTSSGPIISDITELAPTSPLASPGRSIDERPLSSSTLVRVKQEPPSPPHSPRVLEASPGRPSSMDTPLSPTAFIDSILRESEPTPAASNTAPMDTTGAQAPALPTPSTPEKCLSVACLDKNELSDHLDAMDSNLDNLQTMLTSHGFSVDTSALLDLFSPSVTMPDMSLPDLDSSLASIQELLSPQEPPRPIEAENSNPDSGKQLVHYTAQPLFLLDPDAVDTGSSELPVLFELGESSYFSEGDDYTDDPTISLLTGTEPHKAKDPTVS

[10] = fluconazole-exposed Candida albicans growth modulators – fluorescence, retest, confirmation (AID 2467); assay type: functional, cell-based
[11] = NIH-3T3 fibroblast cytotoxicity, dose response, cytotoxicity control, cell-based, fluorescence, Alamar Blue, secondary assay (AID 2327); assay type: functional;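 note: NIH-3T3 mouse fibroblasts cultured with fluconazole at 8 µg/mL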

Chain of Cytochrome P450 2D6 (P10635 whole entry): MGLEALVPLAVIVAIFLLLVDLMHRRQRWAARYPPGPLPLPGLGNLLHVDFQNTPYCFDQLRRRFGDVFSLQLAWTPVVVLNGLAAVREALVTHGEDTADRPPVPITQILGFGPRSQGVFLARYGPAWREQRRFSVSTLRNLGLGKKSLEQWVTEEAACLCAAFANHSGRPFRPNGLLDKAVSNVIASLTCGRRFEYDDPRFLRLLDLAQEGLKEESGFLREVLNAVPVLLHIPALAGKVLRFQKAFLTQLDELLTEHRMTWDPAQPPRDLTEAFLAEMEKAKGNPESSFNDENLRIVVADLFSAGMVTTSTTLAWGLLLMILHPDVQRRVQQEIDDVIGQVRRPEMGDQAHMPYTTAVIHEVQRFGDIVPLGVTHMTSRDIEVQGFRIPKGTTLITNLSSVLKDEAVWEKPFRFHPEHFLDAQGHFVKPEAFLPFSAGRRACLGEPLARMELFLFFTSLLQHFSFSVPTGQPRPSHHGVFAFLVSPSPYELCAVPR
Chain of Cytochrome P450 2C19 (P33261 whole entry): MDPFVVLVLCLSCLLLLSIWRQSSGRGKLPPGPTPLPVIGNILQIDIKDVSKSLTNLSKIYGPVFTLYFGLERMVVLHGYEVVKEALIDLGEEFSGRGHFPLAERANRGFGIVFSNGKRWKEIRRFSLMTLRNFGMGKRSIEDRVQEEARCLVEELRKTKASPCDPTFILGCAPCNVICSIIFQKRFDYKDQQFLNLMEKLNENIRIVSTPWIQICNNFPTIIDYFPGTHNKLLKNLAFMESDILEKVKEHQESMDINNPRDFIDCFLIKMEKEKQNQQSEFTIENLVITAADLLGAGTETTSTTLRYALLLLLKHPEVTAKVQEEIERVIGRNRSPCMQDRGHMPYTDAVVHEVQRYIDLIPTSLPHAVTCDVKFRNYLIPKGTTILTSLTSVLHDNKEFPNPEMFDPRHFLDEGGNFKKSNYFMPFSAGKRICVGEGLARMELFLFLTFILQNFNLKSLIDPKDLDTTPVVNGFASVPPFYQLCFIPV
Chain of Luciferin 4-monooxygenase (P08659 whole entry): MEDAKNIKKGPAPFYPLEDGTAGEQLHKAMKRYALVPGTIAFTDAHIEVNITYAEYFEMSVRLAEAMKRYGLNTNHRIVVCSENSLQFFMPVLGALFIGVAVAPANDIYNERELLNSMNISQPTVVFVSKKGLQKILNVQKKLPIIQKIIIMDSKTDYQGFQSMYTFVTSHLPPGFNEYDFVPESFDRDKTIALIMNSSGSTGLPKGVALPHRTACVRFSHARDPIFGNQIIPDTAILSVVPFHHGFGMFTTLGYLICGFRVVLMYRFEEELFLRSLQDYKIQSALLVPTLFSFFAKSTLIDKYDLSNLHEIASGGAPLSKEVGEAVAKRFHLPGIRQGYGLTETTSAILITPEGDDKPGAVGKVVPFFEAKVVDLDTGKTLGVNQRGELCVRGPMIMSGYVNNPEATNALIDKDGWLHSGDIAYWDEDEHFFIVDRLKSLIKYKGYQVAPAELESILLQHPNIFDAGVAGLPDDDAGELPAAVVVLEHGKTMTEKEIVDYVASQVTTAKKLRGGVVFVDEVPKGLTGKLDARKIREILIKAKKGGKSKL
Chain of Cytochrome P450 3A4 (P08684 whole entry): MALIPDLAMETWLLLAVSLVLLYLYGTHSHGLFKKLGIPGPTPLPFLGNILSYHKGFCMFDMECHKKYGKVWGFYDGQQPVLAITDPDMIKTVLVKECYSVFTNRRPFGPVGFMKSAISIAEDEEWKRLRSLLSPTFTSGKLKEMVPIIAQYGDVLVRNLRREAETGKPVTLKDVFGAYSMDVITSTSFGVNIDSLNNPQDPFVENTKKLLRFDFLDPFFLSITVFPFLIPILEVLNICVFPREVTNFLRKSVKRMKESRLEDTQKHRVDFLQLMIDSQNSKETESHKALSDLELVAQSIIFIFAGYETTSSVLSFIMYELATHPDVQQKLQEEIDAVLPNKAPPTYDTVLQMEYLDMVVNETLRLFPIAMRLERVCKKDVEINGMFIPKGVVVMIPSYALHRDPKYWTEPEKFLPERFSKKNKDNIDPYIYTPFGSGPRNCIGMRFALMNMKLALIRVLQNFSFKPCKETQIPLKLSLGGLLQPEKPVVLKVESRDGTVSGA

Row | Structure (SMILES) | EC50 [1] | EC50 [2] | AC50 (Cytochrome P450 2C19; read-out: AC50) | further results
1 | COc1ccc(-c2nnc(-c3ccccc3)o2)cc1OC | > 112 µM (not active) | 72.5 µM (active) | – | –
2 | O=C(c1ccc(F)cc1)N1CC(=O)N2[C@H](CO)[C@H](c3ccc(C#Cc4ccc(F)cc4)cc3)[C@H]2C1 | – | – | – | AC50 [3]: 4.05 µM (active)
3 | CN(C)c1ccc(/C=N/NC(=O)c2ccnn2C)cc1 | 6.24 µM (active) | 1.32 µM (active) | – | –
4 | CCOC(=O)c1ccccc1NC(=O)/C(C)=C/C(=O)O | – | – | 39.8 µM (inconclusive) | AC50 (Cytochrome P450 1A2): 20 µM (inconclusive)
5 | COc1ccc2nc(NC(=O)CSc3nnc(C)s3)sc2c1 | – | – | 3.55 µM (inconclusive) | AC50 (Cytochrome P450 3A4): 3.98 µM (inconclusive)
6 | CCc1noc(N)c1C(=O)Nc1ccc(F)c(Cl)c1 | – | – | 15.8 µM (inconclusive) | AC50 (Cytochrome P450 3A4): 15.8 µM (inconclusive); AC50 (Cytochrome P450 2D6): 22.4 µM (inconclusive)
7 | Cc1ccc(CNC(=O)c2cc(-c3ccccc3C)nn2CC2CC(c3cccnc3)=NO2)cc1 (stereo not drawn) | – | – | – | AC50 [4]: > 70 µM (inactive); AC50 [5]: 29 µM (active)
8 | Cc1c(OCC(=O)N2CCN(c3ccccc3)CC2)ccc2c3c(c(=O)oc12)CCCC3 | > 112 µM (not active) | > 112 µM (not active) | – | –
9 | CC(C)OC(=O)c1c(NS(=O)(=O)c2ccccc2)sc2c1CCCC2 | – | – | – | EC50 [6]: 14 µM (active); EC50 (Streptococcus): 7.93 µM (active); EC50 [7]: 3.69 µM (active); EC50 (Streptokinase A): > 150 µM (not active)
10 | O=C(CCC(=O)N1CCN(c2ccc(O)cc2)CC1)c1ccc(Br)cc1 | – | – | – | AC50 [8]: 6.98 µM (active); EC50 [9]: > 260 µM (inactive)
11 | Cc1cc(C)c(C)c(OCC(O)CN2CCN(c3ccccn3)CC2)c1 (stereo not drawn) | > 112 µM (not active) | > 112 µM (not active) | – | –
12 | O=C(CN1CCN(c2ccccc2)CC1)N1N=CCC1c1ccccc1 (stereo not drawn) | > 112 µM (not active) | > 112 µM (not active) | – | –
13 | CN1CCN([C@@H](c2ccccc2)c2ccc(Cl)cc2)CC1 [CHLORCYCLIZINE HYDROCHLORIDE] | – | – | 3.98 µM (inconclusive) | –
14 | O=C(OC1CCOC1=O)c1cc(Cl)ccc1[N+](=O)[O-] (stereo not drawn) | – | – | – | EC50 [9]: > 260 µM (inactive)
15 | COc1ccc(-c2c[nH]nc2-c2ccc(OCc3ccc([N+](=O)[O-])cc3)cc2O)cc1OC | – | – | – | EC50 [9]: > 260 µM (inactive)
16 | N#Cc1ccc(CN2CC3(CCN(C(=O)c4cc(C(F)(F)F)cc(C(F)(F)F)c4)CC3)C2)cc1 | – | – | 39.8 µM (inconclusive) | AC50 (Cytochrome P450 2D6): 31.6 µM (inconclusive)

Row | Structure (SMILES) | EC50 [1] | EC50 [2] | AC50 (Cytochrome P450 2C19; read-out: AC50) | further results
17 | CC(C(=O)Nc1ccccc1Br)N1c2cccc3cccc(c23)S1(=O)=O (stereo not drawn) | – | – | – | EC50 [9]: > 260 µM (inactive)
18 | COc1ccc(NC(=O)NC2CC3CCCC(C2)N3Cc2ccccc2)cc1 (stereo not drawn) | – | – | 14.1 µM (inconclusive) | AC50 (Cytochrome P450 2D6): 11.2 µM (inconclusive)
19 | COCCn1c(=O)c(-c2cn(C)c3ccccc23)nc2cnc(Oc3ccc(OC)cc3)nc21 | – | – | 15.8 µM (inconclusive) | AC50 (Cytochrome P450 1A2): 2.51 µM (inconclusive)
20 | CC(C)CN1CCCC2(CCN(S(=O)(=O)c3ccccc3)CC2)C1 | – | – | 31.6 µM (inconclusive) | –
21 | C=CCn1c(S)nnc1C1CCCCC1 | – | – | – | EC50 [9]: > 260 µM (inactive)
22 | N=C(N)SCc1nc2ccccc2c(=O)n1-c1ccccc1Cl | – | – | 10 µM (inconclusive) | AC50 [8]: 6.37 µM (active); AC50 (Cytochrome P450 2D6): 0.316 µM (inconclusive)
23 | CC(=O)c1nn(-c2cccc(Br)c2)cc1C(=O)c1ccc(Cl)cc1 | – | – | – | EC50 [9]: > 260 µM (inactive)
24 | CC(=O)Nc1ccc(NC(=O)c2ccccc2CC[N+](=O)[O-])cc1 | – | – | 0.355 µM (inconclusive) | AC50 (Cytochrome P450 2D6): 14.1 µM (inconclusive)
25 | O=C(NCc1ccc(Cl)cc1)c1n[nH]c([N+](=O)[O-])c1Cl | – | – | – | EC50 [10]: 0.123 µM (active); EC50 [11]: > 160 µM (inactive)
26 | COc1ccc(NC(=O)COc2ccc(CNCCCN3CCOCC3)cc2OC)cc1.Cl | – | – | – | AC50 (Cytochrome P450 2C19): inconclusive
27 | COc1ccc(CC(=O)Nc2ccc(-c3cn4ccccc4n3)cc2)cc1OC | > 112 µM (not active) | > 112 µM (not active) | – | –
28 | Cc1cc(-n2ccc(=O)[nH]c2=O)nc(-c2ccccc2)n1 | > 112 µM (not active) | 15.4 µM (active) | – | –
29 | O=C(CSc1nnc(SCc2ccc(F)cc2)s1)Nc1ccc(C(=O)O)cc1 | > 112 µM (not active) | 39.4 µM (active) | – | –
30 | Cc1cc2c(ncn2C)c(NS(=O)(=O)c2cc(Cl)ccc2Cl)c1C | – | – | – | EC50 [9]: > 260 µM (inactive)
31 | Cc1cccc(NC(=O)CNC(=O)COC(=O)CCS(=O)(=O)c2ccccc2)c1C | > 112 µM (not active) | > 112 µM (not active) | – | –
32 | O=C(NCC1(N2CCCCC2)CCCCC1)c1ccc(NS(=O)(=O)c2ccc(F)cc2)cc1 | > 112 µM (not active) | > 112 µM (not active) | – | –
